Source: BindingDB's records for doi:10.1021/jm070643q (Universit&#224, 2007)
pKi: −log10 of the molar value.

biological target: beta-lactamase AmpC (Escherichia coli) (UniProt P00811); test: Inhibition of Escherichia coli beta-lactamase
Sequence (P00811 whole entry, looked up): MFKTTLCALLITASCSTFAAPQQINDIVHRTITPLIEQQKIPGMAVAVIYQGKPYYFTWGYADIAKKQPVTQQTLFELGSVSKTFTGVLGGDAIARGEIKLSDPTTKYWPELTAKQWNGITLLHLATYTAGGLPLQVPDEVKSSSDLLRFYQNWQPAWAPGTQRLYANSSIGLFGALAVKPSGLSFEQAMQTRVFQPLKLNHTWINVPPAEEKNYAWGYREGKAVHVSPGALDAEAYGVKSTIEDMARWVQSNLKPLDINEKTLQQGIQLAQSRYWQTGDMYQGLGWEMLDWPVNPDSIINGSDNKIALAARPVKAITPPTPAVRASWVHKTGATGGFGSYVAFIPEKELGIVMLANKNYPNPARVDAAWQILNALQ

Compound	pKi
O=CNCc1ccc2sc(B(O)O)cc2c1 [5-formylaminomethylbenzo[b]thiophen-2-ylboronic acid]	6.35
OB(O)c1cc2cc(Cn3ccnc3)ccc2s1 [5-imidazol-1-yl-methylbenzo[b]thiophen-2-ylboronic acid]	7.09
Cc1ccc2sc(B(O)O)cc2c1 [5-methyl-benzo[b]thiophen-2-ylboronic acid]	7.52
